The values that follow come from patent US12060387B2, “Polypeptide-based shuttle agents for improving the transduction efficiency of polypeptide cargos to the cytosol of target eukaryotic cells, uses thereof, methods and kits relating to same” (priority 2015, dated 2024).

Where two headings read alike, the source gives them in different places. Where no end group is shown, it is not given here.

The nature of data set [1]: Cell toxicity / % cell viability by flow cytometry (cells in total events v. untreated). Format: cell-based, Human. Particulars: human, HeLa cells, HeLa, 1 hour; for viability at 1 h, 0.5 µM / viability at 1 h, 1 µM / viability at 1 h, 3 µM / viability at 1 h, 5 µM: Cell viability (%) (±St. Dev.; n = 3), read-out: Cell viability (%) (±St. Dev.; n = 3); for viability at 1 h, 0.5 µM: shuttle 0.5 μM; for viability at 1 h, 1 µM: shuttle 1 μM; for viability at 1 h, 3 µM: shuttle 3 μM; for viability at 1 h, 5 µM: shuttle 5 μM. On the technique in general: A flow cytometer gives signals particle by particle.
Excerpt: (§4) The fluorescence of GFP was quantified using flow cytometry (Accuri C6, Becton, Dickinson and Company (BD)). Untreated cells were used to establish a baseline in order to quantify the increased fluorescence due to the internalization of the fluorescent protein in treated cells. The percentage of cells with a fluorescence signal above the maximum fluorescence of untreated cells, “mean %” or “Pos cells (%)”, is used to identify positive fluorescent cells. “Relative fluorescence intensity (FL1-A)” corresponds to the mean of all fluorescence intensities from each cell with a fluorescent signal after fluorescent protein delivery with the shuttle agent. Also, the events scanned by flow cytometry corresponding to cells (size and granularity) were analyzed. The cellular toxicity (% cell viability) was monitored comparing the percentage of cells in the total events scanned of treated cells comparatively to untreated cells.

The subject of data set [2] is HeLa cells. The data set is described as above. Type of data set: cell-based, Human. Particulars: HeLa; GFP-NLS 5 μM; shuttle 1 μM; 1 hour.
Excerpt: as §4
A further data set relates to primary myoblasts. Briefly: Calcein endosomal escape assay, quantification by flow cytometry. Type of data set: cell-based, Human. Here is the method:
(§1) In addition to microscopy, flow cytometry allows a more quantitative analysis of the endosomal leakage as the fluorescence intensity signal increases once the calcein is released in the cytoplasm. Calcein fluorescence is optimal at physiological pH (e.g., in the cytosol), as compared to the acidic environment of the endosome.
(§2) The cells were allowed to attach by incubating overnight in appropriate growth media, as described in Example 1. The next day, the media in wells was removed and replaced with 50 μL of fresh media without serum containing 62.5 μg/mL (100 μM) of calcein, except for HEK293A (250 μg/mL, 400 μM). At the same time, the shuttle agent(s) to be tested was added at a predetermined concentration. The plate was incubated at 37° C. for 30 minutes. The cells were washed with 1×PBS (37° C.) and fresh media containing 5-10% serum was added. The plate was incubated at 37° C. for 2.5 hours. The cells were washed with 1×PBS and detached using trypsinization.
(§3) Untreated calcein-loaded cells were used as a control to distinguish cells having a baseline of fluorescence due to endosomally-trapped calcein from cells having increased fluorescence due to release of calcein from endosomes. Fluorescence signal means (“mean counts”) were analyzed for endosomal escape quantification. In some cases, the “Mean Factor” was calculated, which corresponds to the fold-increase of the mean counts relative to control (untreated calcein-loaded cells). […] The cellular mortality was monitored with the percentage of cells in the total events scanned. When it became lower than the control, it was considered that the number of cellular debris was increasing due to toxicity and the assay was discarded.
To examine the effects of the shuttle agents on primary cells, primary myoblast cells were cultured and tested in the endosomal escape assays as described in Example 2.1. The results of flow cytometry analyses are summarized below in Tables 2.9 and 2.10, and in FIG. 4. In each case, the flow cytometry results were also confirmed by fluorescence microscopy.

Data set [3] in a line: Cell toxicity / % cell viability by flow cytometry (cells in total events v. untreated). Particulars: human, THP-1 cells, Cell viability (%) (±St. Dev.; n = 3), FIG. 17B; THP-1; GFP-NLS 5 μM; shuttle 1 μM; 5 minutes. Format: cell-based, human.
Excerpt: as §4
The subject of data set [4] is HeLa cells. Type of data set: cell-based, Human. Here is the method: as §1, §2, §3
HeLa cells were cultured and tested in the endosomal escape assays as described in Example 2.1. In each case, the flow cytometry results were also confirmed by fluorescence microscopy (data not shown).

Data set [5] has as its system HeLa cells. Description: GFP transduction efficiency, flow cytometry (% GFP-positive cells). Type of data set: cell-based, Human. Particulars: for Mean (%) (n = 3), FIG. 7B: shuttle 2.5 μM. Here is the method: GFP, GFP-NLS and TAT-GFP are recombinant proteins developed and produced by Feldan (see Example 3.4 below).
Briefly, GFP recombinant protein was co-incubated with different concentrations of CM18-TAT-Cys or dimerized CM18-TAT-Cys (dCM18-TAT-Cys), and then exposed to HeLa cells for 1 hour.
Briefly, GFP recombinant protein (5 μM) was co-incubated with different concentrations and combinations of CM18-TAT-Cys, CM18-Penetratin-Cys, and dimers of each (dCM18-TAT-Cys, dCM18-Penetratin-Cys), and then exposed to HeLa cells for 1 hour. […] The results are shown in Table 3.3 and FIG. 8, as well as in Table 3.4 and FIG. 9.

The test system of data set [6] is HeLa cells. Description: GFP-NLS transduction efficiency, flow cytometry (Pos cells %, relative fluorescence intensity FL1-A). Particulars: GFP-NLS 5 μM, 1 hour. Type of data set: cell-based, Human.
Setting [7] is: FIG. 11B, TAT-GFP 5 μM, FIG. 11B.
Setting [8] is: FIG. 13B, GFP-NLS 5 μM, FIG. 13B.
Where [9] appears, read: FIG. 21B, GFP-NLS 5 μM, FIG. 21B.

For orientation: viability means a per cent measure of how many cells are alive, often set against a control. Regarding “KWKLFKKIGAVLKVLTTGYGRKKRRQRRRC [CM18-TAT-Cys]”, in data set [1] (FIG. 6B, GFP 5 μM, FIG. 6B), the viability at 1 h, 0.5 µM came to 88.4 ± 6%; the viability at 1 h, 1 µM was determined as 90 ± 6%; the viability at 1 h, 3 µM was determined as 91 ± 5%; the viability at 1 h, 5 µM came out at 90 ± 7%. In data set [1] (setting [7]), the viability at 1 h, 0.5 µM amounted to 84.4 ± 5%; the viability at 1 h, 1 µM was 89.3 ± 5.26%; the viability at 1 h, 3 µM is 93.2 ± 6.28%; the viability at 1 h, 5 µM is 95.1 ± 5.28%. In data set [1] (setting [8]), the viability at 1 h, 0.5 µM was 87.6 ± 4%; the viability at 1 h, 1 µM stood at 93 ± 8%; the viability at 1 h, 3 µM worked out at 94 ± 5%; the viability at 1 h, 5 µM is 93 ± 4%. Further, in data set [1] (setting [9]), the viability at 1 h, 3 µM amounted to 89 ± 5.37% and the viability at 1 h, 5 µM turned out to be 81 ± 6.34%. Also, the viability at 1 h, 3.5 µM in data set [1] (antibody 0.5 μM, shuttle 3.5 μM, read-out: Cell viability (%) (± St. Dev.; n = 3), FIG. 19B) was 95 ± 4.06%. In addition, in the data set on HeLa cells [2], the “Cell viability (%) (±St. Dev.; n = 3), FIG. 21B” value is 94 ± 4.28%. In addition, in the data set on primary myoblasts (myoblast cells), the “concentrations associated with an increase in cell toxicity” value is “above 10 μM”. In data set [3], the viability at 5 min, 1 µM worked out at 85 ± 6%.
Consider “KWKLFKKIGAVLKVLTTGYGRKKRRQRRRC [dCM18-TAT-Cys]”, for which the “Mean Factor” value in the data set with HeLa cells [4] (Table 2.6, dimer 2 μM) is on record as 1.3; with HeLa cells [4] (Table 2.7, dimer 2 μM), 3.1; with primary myoblasts (primary myoblasts, peptide 2.5 μM, factor v. no peptide), 2.1. For the same sequence, in the data set on HeLa cells [4] (Table 2.6, dimer 2 μM), the “Mean counts (n = 4)” value was 79 380. The “Mean counts (n = 3)” value in the data set on HeLa cells [4] (Table 2.7, dimer 2 μM) is 174 274. In addition, the “GFP transduction efficiency / intracellular delivery (in words)” value with HeLa cells [5] (GFP 5 μM, 1 hour, Table 3.3 and FIG. 8) is recorded as “increased”; in the data set on HeLa cells [5] (GFP 5 μM, 1 hour, Table 3.4 and FIG. 9), “increased”. Besides, the “Mean (%) (n = 3), FIG. 8” value with HeLa cells [5] (GFP 5 μM, shuttle 0.5 μM, 1 hour) came out at 8.86%. Moreover, the “Mean (%) (n = 3), FIG. 9” value in the data set on HeLa cells [5] (GFP 5 μM, shuttle 1 μM, 1 hour) is 18.43%. For the same sequence, the figures for the “Mean (%) (n = 3), FIG. 7B” value in the data set on HeLa cells [5] (GFP 1 μM), in the data set on HeLa cells [5] (GFP 5 μM) and with HeLa cells [5] (GFP 10 μM) were 9.38%, 22.2% and 34.2%, respectively. In the data set with primary myoblasts (primary myoblasts, peptide 2.5 μM, Table 2.11), the Mean counts is recorded as 64 864. Moreover, in the data set on HeLa cells [6] (Tables 5.2, 5.3, FIGS. 14, 15), the “GFP-NLS transduction efficiency / intracellular delivery (in words)” value is listed as “increased”. For the same sequence, the “Mean (%) (n = 3), FIG. 14” value in the data set on HeLa cells [6] (shuttle 0.5 μM) is reported as 8.29%. In the data set with HeLa cells [6] (shuttle 1 μM), the “Mean (%) (n = 3), FIG. 15” value was 17.83%.
